Experimental data from ChEMBL document CHEMBL1201862, “PubChem BioAssay data set” (2004).
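A five-concentration, 48-hour dose response in 96-well plates underlies each endpoint, interpolated linearly between surrounding concentrations. The concentration for 50% growth inhibition is given as GI50.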 Calls of active or inactive are those of the source. Rule as the data show it: active = GI50 up to about 1.1 µM and inactive = higher.

Columns and labels:
Assay in all cases: NCI-60 cell line screen, 48 h
OVCAR-4 = test system: OVCAR-4
OVCAR-8 = test system: OVCAR-8
HOP-62 = test system: HOP-62
Malme-3M = test system: Malme-3M
SF-295 = test system: SF-295
T47D = test system: T47D
HOP-92 = test system: HOP-92
SNB-75 = test system: SNB-75
NCI-H226 = test system: NCI-H226
SK-MEL-2 = test system: SK-MEL-2
MOLT-4 = test system: MOLT-4
SK-OV-3 = test system: SK-OV-3
COLO 205 = test system: COLO 205
OVCAR-3 = test system: OVCAR-3
A549 = test system: A549
SW-620 = test system: SW-620
SK-MEL-28 = test system: SK-MEL-28
NCI/ADR-RES = test system: NCI/ADR-RES
HL-60 = test system: HL-60
MCF7 = test system: MCF7

Row | SMILES | GI50 (OVCAR-4) | GI50 (OVCAR-8) | GI50 (HOP-62) | GI50 (Malme-3M) | GI50 (SF-295) | GI50 (T47D) | GI50 (HOP-92) | GI50 (SNB-75) | GI50 (NCI-H226) | GI50 (SK-MEL-2) | GI50 (MOLT-4) | GI50 (SK-OV-3) | GI50 (COLO 205) | GI50 (OVCAR-3) | GI50 (A549) | GI50 (SW-620) | GI50 (SK-MEL-28) | GI50 (NCI/ADR-RES) | GI50 (HL-60) | GI50 (MCF7)
1 | CC(=O)ON(C(C)=O)c1ccc(-c2nc3ccccc3s2)cc1 | 38.7 µM (inactive) | 21.2 µM (inactive) | 22 µM (inactive) | 14.7 µM (inactive) | 30.1 µM (inactive) | 17.4 µM (inactive) | 34.7 µM (inactive) | 24.5 µM (inactive) | 0.276 µM (active) | 24.8 µM (inactive) | 13.3 µM (inactive) | 31.3 µM (inactive) | 18.7 µM (inactive) | 22.1 µM (inactive) | 26.3 µM (inactive) | 26.2 µM (inactive) | 31.8 µM (inactive) | 16.3 µM (inactive) |  | 
2 | CN1CCN(CCCN2c3ccccc3Sc3ccc(C(F)(F)F)cc32)CC1 | 13.5 µM (inactive) | 15.9 µM (inactive) | 13.1 µM (inactive) | 2.69 µM (inactive) | 9.89 µM (inactive) | 10 µM (inactive) |  | 7.24 µM (inactive) | 15.5 µM (inactive) | 7.93 µM (inactive) | 4.6 µM (inactive) | 14.6 µM (inactive) |  |  | 12.6 µM (inactive) |  | 1.82 µM (inactive) | 11.6 µM (inactive) | 6.14 µM (inactive) | 
3 | CC1=NN2C(c3ccc(C)cc3)=CSC2=NC(C)(C)C1 | > 100 µM (inactive) | > 100 µM (inactive) | > 100 µM (inactive) | > 100 µM (inactive) | > 100 µM (inactive) |  | > 100 µM (inactive) | > 100 µM (inactive) | > 100 µM (inactive) | > 100 µM (inactive) | > 100 µM (inactive) | > 100 µM (inactive) | > 100 µM (inactive) | > 100 µM (inactive) | > 100 µM (inactive) | > 100 µM (inactive) | > 100 µM (inactive) |  | 76.2 µM (inactive) | 
4 | CCN(C(C)=N)c1ccccc1 | 66.8 µM (inactive) | > 100 µM (inactive) | 66.4 µM (inactive) | > 100 µM (inactive) | 43.5 µM (inactive) |  | 60.4 µM (inactive) | 37.5 µM (inactive) | 56.8 µM (inactive) | > 100 µM (inactive) | 72.6 µM (inactive) | > 100 µM (inactive) | > 100 µM (inactive) | > 100 µM (inactive) | > 100 µM (inactive) | > 100 µM (inactive) | 68.4 µM (inactive) |  | 32.8 µM (inactive) | 
5 | C[C@]12CCC3[C@@H](CC[C@@H]4c5nonc5CC[C@]34C)C1CCC(=O)N2 (stereo partly specified) | > 100 µM (inactive) | > 100 µM (inactive) | > 100 µM (inactive) | > 100 µM (inactive) | > 100 µM (inactive) |  | 95.7 µM (inactive) | 55 µM (inactive) | > 100 µM (inactive) | 0.356 µM (active) | > 100 µM (inactive) | > 100 µM (inactive) | > 100 µM (inactive) | > 100 µM (inactive) | > 100 µM (inactive) | > 100 µM (inactive) | > 100 µM (inactive) |  | 93.8 µM (inactive) | 
6 | CCOC(=O)NC(=O)c1cn(CCN2CCN(C(=O)CCCCCCCCCCNc3ncnc4[nH]cnc34)CC2)c(=O)[nH]c1=O | > 100 µM (inactive) | > 100 µM (inactive) | > 100 µM (inactive) | 6.7 µM (inactive) | > 100 µM (inactive) |  | > 100 µM (inactive) | > 100 µM (inactive) | > 100 µM (inactive) | > 100 µM (inactive) | 43.9 µM (inactive) | > 100 µM (inactive) | > 100 µM (inactive) | > 100 µM (inactive) | > 100 µM (inactive) | > 100 µM (inactive) | 11.5 µM (inactive) |  | 46.7 µM (inactive) | 
7 | C=C1C(=O)OC2/C=C(\C)C(=O)CC3OC(C)(C)OC3(C)CC(OC(=O)/C(C)=C/C)C12 (stereo unspecified) | 17.6 µM (inactive) | 20.6 µM (inactive) | 58.1 µM (inactive) | 10.9 µM (inactive) | 42 µM (inactive) | 17.6 µM (inactive) | 13.6 µM (inactive) | > 42.9 µM (inactive) | 23.4 µM (inactive) | 28.1 µM (inactive) | 6.61 µM (inactive) | 55.5 µM (inactive) | 6.35 µM (inactive) | 10.8 µM (inactive) | 48.8 µM (inactive) | 4.69 µM (inactive) | 11.9 µM (inactive) |  | 3.26 µM (inactive) | 7.46 µM (inactive)
8 | N#CC(/C(CCCC(=O)Nc1cccc([N+](=O)[O-])c1)=N\NC(=O)c1c(O)ccc2ccccc12)c1nc2ccccc2s1 (stereo unspecified) | 24.3 µM (inactive) | 18.5 µM (inactive) | 27.8 µM (inactive) | 35 µM (inactive) | 28.6 µM (inactive) |  | 53.1 µM (inactive) | 10.7 µM (inactive) | 21.9 µM (inactive) | 27.1 µM (inactive) | 11.7 µM (inactive) | 25.5 µM (inactive) | 30.1 µM (inactive) | 16.3 µM (inactive) | 10.8 µM (inactive) | 44.8 µM (inactive) | 21.5 µM (inactive) |  | 3.16 µM (inactive) | 
9 | COc1cc2c(cc1O)C(C)Cc1cc3c(cc1N(C)CC2)OCO3 (stereo unspecified) | 15.7 µM (inactive) | 9.25 µM (inactive) | 10.6 µM (inactive) | 3.12 µM (inactive) | 2.78 µM (inactive) |  | 4.66 µM (inactive) | 2.45 µM (inactive) | 6.65 µM (inactive) | 4.44 µM (inactive) | 4.13 µM (inactive) | 3.32 µM (inactive) | 24.2 µM (inactive) | 3.03 µM (inactive) | 3.94 µM (inactive) | 3.74 µM (inactive) | 6.22 µM (inactive) |  | 4.61 µM (inactive) | 
10 | COc1ccc(C(=O)OC2C=COC(C)C2OC(=O)c2ccc(OC)cc2)cc1 (stereo unspecified) | 24.9 µM (inactive) | 23.6 µM (inactive) | > 83.6 µM (inactive) | 18.2 µM (inactive) | 33.2 µM (inactive) |  | 17.5 µM (inactive) | 12.4 µM (inactive) | 38.8 µM (inactive) | 17.5 µM (inactive) | 16.3 µM (inactive) | > 100 µM (inactive) | 42.8 µM (inactive) | 16.6 µM (inactive) | 48.1 µM (inactive) | 15.6 µM (inactive) | 16.4 µM (inactive) |  | 10.6 µM (inactive) | 
11 | CN(C)CCNC(=O)c1cccc2nc3c(Cl)cccc3nc12 | 6.31 µM (inactive) | 4.46 µM (inactive) | 5.66 µM (inactive) | 2 µM (inactive) | 4.8 µM (inactive) |  | 2.84 µM (inactive) | 7.48 µM (inactive) | 3.55 µM (inactive) | 5.22 µM (inactive) | 2.38 µM (inactive) | 17.3 µM (inactive) | 3.75 µM (inactive) | 6.38 µM (inactive) | 4.33 µM (inactive) | 3.92 µM (inactive) | 4.7 µM (inactive) |  | 6.43 µM (inactive) | 
12 | C=CC(C)(C)n1cc(C2=C(O)C(=O)C(c3c(CC=C(C)C)[nH]c4ccccc34)=C(O)C2=O)c2ccccc21 | 2.19 µM (inactive) | 1.3 µM (inactive) | 1.25 µM (inactive) | 1.82 µM (inactive) | 1.58 µM (inactive) | 2.47 µM (inactive) | 1.46 µM (inactive) | 0.796 µM (active) | 1.53 µM (inactive) | 1.59 µM (inactive) | 1.6 µM (inactive) | 2.14 µM (inactive) | 1.71 µM (inactive) | 1.32 µM (inactive) | 0.624 µM (active) | 3.43 µM (inactive) | 0.575 µM (active) | 2.47 µM (inactive) | 1.86 µM (inactive) | 
13 | COc1cccc(C(NC2=NCCC=N2)c2cc3c(cc2O)OCO3)c1O (stereo unspecified) |  | 10.4 µM (inactive) | 25.7 µM (inactive) | 38.1 µM (inactive) | 42.2 µM (inactive) | 25.5 µM (inactive) | 23.7 µM (inactive) | 23.3 µM (inactive) | 43.5 µM (inactive) | 24.4 µM (inactive) | 23.6 µM (inactive) | 94 µM (inactive) | 40.1 µM (inactive) | 22 µM (inactive) | 41.1 µM (inactive) | 20.4 µM (inactive) | 32.7 µM (inactive) |  | 8.93 µM (inactive) | 18 µM (inactive)
14 | COC(=O)C1N=CSCC1(C)O (stereo unspecified) | > 100 µM (inactive) | > 100 µM (inactive) | > 100 µM (inactive) | > 100 µM (inactive) | > 100 µM (inactive) |  | > 100 µM (inactive) | > 100 µM (inactive) | > 100 µM (inactive) | > 100 µM (inactive) | > 100 µM (inactive) | > 100 µM (inactive) | > 100 µM (inactive) | > 100 µM (inactive) | > 100 µM (inactive) | > 100 µM (inactive) | > 100 µM (inactive) |  | > 100 µM (inactive) | 
15 | O=[N+]([O-])c1nccn1CC(O)c1ccccc1 (stereo unspecified) | > 100 µM (inactive) | > 100 µM (inactive) | > 100 µM (inactive) | > 100 µM (inactive) | > 100 µM (inactive) |  | > 100 µM (inactive) | > 100 µM (inactive) | > 100 µM (inactive) | > 100 µM (inactive) | > 100 µM (inactive) | > 100 µM (inactive) | > 100 µM (inactive) | > 100 µM (inactive) | > 100 µM (inactive) | > 100 µM (inactive) | > 100 µM (inactive) |  | > 100 µM (inactive) | 
16 | COC(=O)[C@@]1(O)CC(C)C=C1C=O (stereo partly specified) | > 100 µM (inactive) | > 100 µM (inactive) | > 100 µM (inactive) | > 100 µM (inactive) | > 100 µM (inactive) |  | > 100 µM (inactive) | > 100 µM (inactive) | > 100 µM (inactive) | > 100 µM (inactive) | 60.8 µM (inactive) | > 100 µM (inactive) | > 100 µM (inactive) | 53.6 µM (inactive) | 24.6 µM (inactive) | 40.1 µM (inactive) | > 100 µM (inactive) |  | 22.1 µM (inactive) | 
